# Measurements from US5545648A (Canadian Spinal Research Organization, priority 1992, dated 1996).
# Values joined by “and” are separate entries in the source; they are usually repeats but may differ in a detail not shown here. Equal values may be shown once. “Also recorded” adds a separate entry of the source.
# Assays:
# [1] = tested on: multiple sclerosis patients; conditions: cited from earlier work
# [2] = tested on: animals with experimental or naturally occurring spinal cord injuries; conditions: intravenous injection; cited from earlier work
# [3] = tested on: surviving myelinated axons of spinal cord; conditions: single nerve fibers; cited from earlier work
# [4] = Plasma levels of 4-AP after intravenous infusion (column liquid chromatography); type: in vivo, human
# Description: The drug was obtained in purified powder form from the Regis Chemical Company (Morton Grove, Ill.) and prepared as an injectable solution, using a 0.9% saline vehicle (Uges and Huizinga, 1981), by the pharmacy of St. Joseph's Hospital. The pharmacy was also responsible for testing pyrogenicity, randomizing the order in which drug and vehicle were administered to different patients, and for providing an escalating scale of dosage during the course of the study. The 4-AP for the first two patients was prepared at a concentration of 3 mg/ml, and the concentration was increased to 4 and 5 mg/ml for succeeding subjects (see Table 1). The drug was further diluted by a factor of 50 times in dextrose saline before delivery, and was administered in the form of a continuous intravenous infusion at a rate of 150 ml/hr controlled by a peristaltic infusion pump. Therefore the delivery rate of the drug increased from 9 mg/hr in the first two patients to 15 mg/hr in the last four. Total intended dosage ranged from 18 to 30 mg. The vehicle control was indistinguishable from the drug solution and was delivered in an identical manner.
# (§1) The schedule of each trial was the same. The patient was admitted to the hospital on the preceding day and in the early morning was assessed by neurological examination and electro-diagnostic evaluation. Administration of the drug or placebo, through an in dwelling venous catheter, was then begun and continued for approximately 2 hours, arranged in 20 minute sequences based on delivery of 1 ml aliquots of the 4-AP solution. The patient was monitored electroencephalographically at frequent intervals throughout the procedure. Samples of blood and urine were obtained from an additional intravenous catheter and from the urinary catheter respectively. Blood was obtained at intervals up to 5 hours from the beginning of drug delivery and urine obtained pre-infusion and at 1 and 2 hours after the beginning of infusion. The patients were re-evaluated by complete neurological examination, by the same examiner, at the end of the period of drug delivery. They were then re-examined with the electrodiagnostic tests. A more limited neurological examination was sometimes performed during drug delivery in an attempt to identify any early changes, without producing significant testing fatigue. The electrodiagnostic tests were repeated at 2 hours after the cessation of drug delivery. Patients showing apparent effects of the treatment remained in the hospital overnight and were examined on the following day. Subsequent contact with the patients was by telephone interview or as a result of their correspondence regarding longer term changes associated with their treatment.
# Two of the patients who reported more prolonged effects of the drug were returned to the hospital after 4 months for a second, unblinded trial, which included neurological examinations daily for 3-4 days. Plasma samples were also obtained daily from these two patients, for measurement of 4-AP.
# Measurement of 4-AP in plasma and urine
# Samples of blood were collected from an in dwelling venous catheter in the arm opposite that into which the drug was delivered. Ten or eleven such samples were obtained at intervals up to 5 hours after the initiation of drug delivery (see FIG. 1). Urine samples were withdrawn from the patients' urinary catheter bags at 1 and 2 hours after the initiation of drug infusion.
# Plasma and urine samples were stored at -80° C. until 4-AP levels were analyzed by means of column liquid chromatography, according to a technique described in detail elsewhere (Kostka et al, 1992). Briefly, both plasma and urine samples were subjected to benzoylation by the Schotten-Baumann reaction to convert 4-AP to N-benzoyl-4-AP (Bz4-AP) prior to liquid-liquid -extraction. Propionyl procainamide (PPA) was chosen as the internal standard. […]
# [5] = tested on: spinal cord injured patients; assay: Electrodiagnostic testing (nerve conduction, electromyography, somatosensory evoked potentials); type: in vivo, human
# Description: as §1
# (§2) Immediately before and after the infusion of 4-AP or placebo, and at approximately 2 hours after the end of the infusion, patients were evaluated with a set of standard electro-diagnostic tests: conduction in peroneal, posterior tibial and sural nerves, electromyography of tibial is anterior and gastroc-nemius muscles during rest and maximal voluntary contraction, and somatosensory evoked potentials. Patients were also monitored with electroencephalography, at intervals during the infusion, to look for evidence of potential for seizure activity.
# [6] = tested on: spinal cord injured patients; assay: Deep tendon (segmental) reflex score; type: in vivo, human
# Description: as §1
# Segmental reflexes (biceps, triceps, knee- and ankle-jerk) were evaluated in the conventional manner with a reflex hammer and scored on a 0-4 point scale:
# 0--no detectable response
# 2--brisk response of normal amplitude
# 3--abnormally large amplitude response
# 4--large amplitude response with some clonus.
# The total possible score in a patient with hyperreflexia and clonus in all tested muscles was 32.
# potassium channels = conditions: cited from earlier work
# [7] = tested on: spinal cord injury patients; conditions: cited from earlier work
# [8] = tested on: spinal cord injured patients; assay: Negative side-effects, EEG and vital sign monitoring; type: in vivo, human
# Description: as §1, §2
# [9] = 2 hours after infusion of 4-AP, total of subjects
structure (smiles),measurement,setting,value
"Nc1ccncc1 [4-AP, 4-aminopyridine]",motor strength and sensory deficits,[1],selective increases in motor strength and recovery of sensory deficits
same,electrophysiological and behavioral function,[2],"significant improvements in electrophysiological (Blight and Gruner, 1987) and behavioral function"
same,overcoming of conduction block,[3],Some of this conduction block can be overcome
same,plasma level of 4-AP after end of infusion,"[4]; 2-3 hours after the end of infusion, all subjects",significant plasma level
same,plasma level remaining relative to peak level,"[4]; by 2 days after the infusion, from rate of decline in two patients",less than 1%
same,correlation of peak plasma level with dose administered,[4]; dose in mg/kg/hr (FIG. 2),correlated significantly
same,concentration at 48 h,"[4]; human, plasma, iv, 48 hours / 2 days after second, unblinded administration, subjects, read-out: 4-AP plasma concentration (below limit of detection)",< 3 ng/mL
same,time of peak level in the circulation,[4]; i.v. infusion approximately 2 hours,slightly before or after the end of the infusion period
same,peak plasma level achieved for each mg/kg infused,"[4]; i.v. infusion over approximately 2 hours, least squares regression, per mg/kg",approximately 0.27 mg/l
same,plasma level of 4-AP the day after infusion,"[4]; second administration, two subjects",detectable levels of the drug in the plasma the day after infusion
same,correlation of time course of elimination with prolonged neurological effects,"[4]; two subjects, 3-4 days",clearly did not correlate
same,oscillation of measured drug levels,"[4]; up to 5 hours from start of infusion, most subjects",some degree of oscillation of the measured drug levels; also recorded: oscillation in the measured drug levels
same,electromyographic data,[5]; after 4-AP,consistent with observed changes in strength of muscle contraction
same,peripheral nerve conduction,[5]; after 4-AP,No consistent effects on peripheral nerve conduction
same,"somatosensory evoked potentials (posterior tibial nerve stimulation), no detectable response","[5]; six subjects, before or after injection",no detectable somatosensory evoked potentials
same,form or amplitude of somatosensory evoked potentials,"[5]; subjects, following 4-AP",did not change significantly in form or amplitude
same,deep tendon reflex scores at 24 and 48 hours,"[6]; 24 and 48 hours, EB, GCh",slight reductions in deep tendon reflex scores at 24 and 48 hours after infusion
same,"change in score for deep tendon reflexes, arms, TOTAL",[6]; [9],+13
same,"change in score for deep tendon reflexes, legs, TOTAL",[6]; [9],+2
same,"change in score for deep tendon reflexes, legs","[6]; 2 hours after infusion of 4-AP, total possible 32, subject one, SC, HT, GCh, AW, GCu",+2 and +1 and -2 and 0 and +3
same,"change in score for deep tendon reflexes, arms","[6]; 2 hours after infusion of 4-AP, total possible 32, subject one, SC, HT, GCh, GCu",+4 and +1 and 0
same,reflex responses at 24 hours,"[6]; 24 hours, AW, LJ",reduced reflex responses
same,deep tendon reflex amplitude immediately after infusion,[6]; predominantly in the arms,marked tendency for increase in amplitude of deep tendon reflexes
same,spontaneous activity of injured nerve fibres on potassium channel blockade,potassium channels,"tends to produce or enhance such spontaneous activity and to elicit ""burst"" (multiple action potential) responses"
same,serious side effects,"[7]; human, in vivo",lack of serious side effects
same,therapeutic benefit,[7]; mostly electrophysiological level,modest therapeutic benefit
same,most frequent side effect: arm discomfort,[8]; arm in which the drug was infused,discomfort in the arm in which the drug was infused
same,adverse indications on EEG and vital signs,[8]; during infusion,No adverse indications were detected
same,duration of warm sensation under the skin from neck to back,[8]; subject four,two days
same,side effects in individual subject,[8]; subject named in the block (LJ; EB; GCh; AW),"pain in the left arm, and some nausea and light-headedness; also recorded: ""warm sensation under the skin from neck to back"" for two days and an episode of constipation; also recorded: no negative side effects; also recorded: After 21 mg of the infusion, their arm became quite painful and they became anxious, then angry, and began to show alternative bouts of sweating and shivering"
same,infusion suspended / not completed,"[8]; subject two, 25 mg rather than planned 30 mg","Infusion was suspended in this case because of a combination of discomfort in the arm at the site of infusion, and a significant degree of agitation and anxiety"
